Measured values from patent EP4549424A1, “NEW LITHIUM EXTRACTING AGENT AND LIQUID ORGANIC MIXTURE THEREOF, AND METHOD FOR EXTRACTING LITHIUM BY MEANS OF EXTRACTION” (Beijing Salt Lake Technology Development Company Limited, priority 2022, dated 2024).
Each block holds one compound with its values, some of them ahead of it.

Legend:
Settings in all cases: organic phase and phase ratio per example
[1] = Liquid-liquid extraction from aqueous lithium-containing solution, ICP detection: lithium;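 note: component concentrations in the aqueous phase were measured by inductively coupled plasma optical emission spectrometry after shaking and phase separation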
[2] = Liquid-liquid extraction from aqueous lithium-containing solution, ICP detection: potassium;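 note: analysis by ICP optical emission spectrometry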
[3] = Liquid-liquid extraction from aqueous lithium-containing solution, ICP detection: sodium;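 note: sodium measured by inductively coupled plasma optical emission spectrometry in the diluted aqueous phase left after shaking with the organic phase and phase separation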
[4] = feed B7 (cLi 0.833, cNa 55.60, cK 5.37 g/L, pH 12.05), 26°C
[5] = feed B1 (cLi 0.807, cNa 56.12 g/L, pH 11.48)
[6] = feed B2 (cLi 0.947, cNa 51.63 g/L, pH 10.77)
[7] = feed B4 (cLi 0.152, cNa 34.20, cK 2.36 g/L, pH 9.14)
[8] = feed B3 (cLi 0.937, cNa 119.10, cK 43.03 g/L, pH 9.60)
[9] = feed B5 (cLi 0.261, cNa 39.98, cK 7.61 g/L, pH 9.49)

Compound: 2-hydroxy-5-fluoroacetophenone [Example 40]
cLi, remaining aqueous phase R1 [1, 4]: 0.417 g/L
extraction rate for lithium ions [1, 4]: 50%
separation factor of Li/Na [1, 4]: 8.6
cK, remaining aqueous phase R1 [2, 4]: 4.86 g/L
extraction rate for potassium ions [2, 4]: 9.5%
cNa, remaining aqueous phase R1 [3, 4]: 49.81 g/L
extraction rate for sodium ions [3, 4]: 10.4%

Compound: 2-hydroxydibenzophenone [Example 2]
cLi, remaining aqueous phase R1 [1, 5]: 0.362 g/L
extraction rate for lithium ions [1, 5]: 55.1%
separation factor of Li/Na [1, 5]: 10.5
cNa, remaining aqueous phase R1 [3, 5]: 50.23 g/L
extraction rate for sodium ions [3, 5]: 10.5%

Compound: 2-hydroxydibenzophenone [Example 29]
extraction rate for lithium ions [1, 6]: 73.3%
separation factor of Li/Na [1, 6]: 72.8
extraction rate for sodium ions [3, 6]: 2.32%

Compound: 4-dodecyloxy-5-bromo-2-hydroxydibenzophenone [Example 14]
extraction rate for lithium ions [1, 7]: 48.7%
separation factor of Li/K [1, 7]: 2.8
separation factor of Li/Na [1, 7]: 15.3
extraction rate for potassium ions [2, 7]: 25.0%
extraction rate for sodium ions [3, 7]: 5.8%

Compound: CCC(O)C(=O)c1ccccc1 (single isomer, unassigned) [Example 4, 2-hydroxybutyrophenone]
extraction rate for lithium ions [1, 5]: 60.1%
separation factor of Li/Na [1, 5]: 29.8
extraction rate for sodium ions [3, 5]: 4.8%

Compound: CCC(O)C(=O)c1ccccc1 (single isomer, unassigned) [Example 5, 2-hydroxybutyrophenone]
extraction rate for lithium ions [1, 5]: 80.5%
separation factor of Li/Na [1, 5]: 57.0
extraction rate for sodium ions [3, 5]: 6.8%

cK, remaining aqueous phase R1 [2, 8]: 41.79 g/L
Compound: CC(=O)CC(=O)c1ccccc1 [Comparative Example 1, benzoyl acetone, reference compound]
extraction rate for lithium ions [1, 8]: 53.0%
separation factor of Li/Na [1, 8]: 19.6
extraction rate for sodium ions [3, 8]: 5.43%

cK, remaining aqueous phase R1 [2, 9]: 7.52 g/L
Compound: CC(=O)CC(=O)c1ccccc1 [Comparative Example 2, benzoyl acetone, reference compound]
extraction rate for lithium ions [1, 9]: 23.4%
separation factor of Li/Na [1, 9]: 6.54
extraction rate for sodium ions [3, 9]: 4.45%

Compound: O=C(CC(=O)c1ccccc1)c1ccccc1 [Comparative Example 3, 1,3-diphenyl-1,3-propanedione, reference compound]
cLi, remaining aqueous phase R1 [1, 8]: 0.377 g/L
extraction rate for lithium ions [1, 8]: 59.76%
separation factor of Li/Na [1, 8]: 45.3
cK, remaining aqueous phase R1 [2, 8]: 43.21 g/L
cNa, remaining aqueous phase R1 [3, 8]: 115.32 g/L
extraction rate for sodium ions [3, 8]: 3.17%

Compound: O=C(CC(=O)c1ccccc1)c1ccccc1 [Comparative Example 4, 1,3-diphenyl-1,3-propanedione, reference compound]
cLi, remaining aqueous phase R1 [1, 9]: 0.186 g/L
extraction rate for lithium ions [1, 9]: 28.73%
separation factor of Li/Na [1, 9]: 8.3
cK, remaining aqueous phase R1 [2, 9]: 7.60 g/L
cNa, remaining aqueous phase R1 [3, 9]: 38.12 g/L
extraction rate for sodium ions [3, 9]: 4.65%

Compound: CCCCCCCCCCCCCCCCCC(=O)CC(=O)c1ccccc1 [Comparative Example 5, stearoylbenzoylmethane, reference compound]
cLi, remaining aqueous phase R1 [1, 8]: 0.577 g/L
extraction rate for lithium ions [1, 8]: 38.42%
separation factor of Li/Na [1, 8]: 12.8
cK, remaining aqueous phase R1 [2, 8]: 41.03 g/L
cNa, remaining aqueous phase R1 [3, 8]: 113.57 g/L
extraction rate for sodium ions [3, 8]: 4.64%

cK, remaining aqueous phase R1 [2, 8]: 42.11 g/L
Compound: Cc1ccc(C(=O)CC(=O)C(F)(F)F)cc1 [Comparative Example 6, 4,4,4-trifluoro-1-(4-tolyl)-1,3-butanedione, reference compound]
extraction rate for lithium ions [1, 8]: 81.11%
separation factor of Li/Na [1, 8]: 125.8
extraction rate for sodium ions [3, 8]: 3.30%

cK, remaining aqueous phase R1 [2, 8]: 42.96 g/L
Compound: CC1=NN(c2ccccc2)C(=O)C1C(=O)c1ccccc1 (centres unmarked) [Comparative Example 7, 1-phenyl-3-methyl-4-benzoyl-5-pyrazolone, reference compound]
extraction rate for lithium ions [1, 8]: 1.28%
separation factor of Li/Na [1, 8]: 1.17
extraction rate for sodium ions [3, 8]: 1.09%

Compound: CC1=NN(c2ccccc2)C(=O)C1C(=O)c1ccccc1 (centres unmarked) [Comparative Example 8, 1-phenyl-3-methyl-4-benzoyl-5-pyrazolone, reference compound]
extraction rate for lithium ions [1, 5]: 7.43%
separation factor of Li/Na [1, 5]: 1.74
extraction rate for sodium ions [3, 5]: 4.40%

Compound: CC(O)C(=O)c1ccccc1 (centres unmarked) [Example 3, 2-hydroxypropiophenone]
cLi, remaining aqueous phase R1 [1, 5]: 0.383 g/L
extraction rate for lithium ions [1, 5]: 52.5%
separation factor of Li/Na [1, 5]: 14.3
cNa, remaining aqueous phase R1 [3, 5]: 52.10 g/L
extraction rate for sodium ions [3, 5]: 7.2%

Compound: CC(=O)c1ccc(OCc2ccccc2)cc1O [Example 6, 4-benzyloxy-2-hydroxyacetophenone]
extraction rate for lithium ions [1, 5]: 34.7%
separation factor of Li/Na [1, 5]: 37.7
extraction rate for sodium ions [3, 5]: 1.4%

Compound: CCCCCCOc1ccc(C(=O)c2ccccc2)c(O)c1 [Example 8, 4-hyxyloxy-2-hydroxydibenzophenone]
extraction rate for lithium ions [1, 5]: 67.0%
separation factor of Li/Na [1, 5]: 29.5
extraction rate for sodium ions [3, 5]: 6.5%

Compound: CCCCCCCOc1ccc(C(=O)c2ccccc2)c(O)c1 [Example 9, 4-heptoxy-2-hydroxydibenzophenone]
extraction rate for lithium ions [1, 5]: 60.8%
separation factor of Li/Na [1, 5]: 23.6
extraction rate for sodium ions [3, 5]: 6.2%

Compound: CCCCCCCCOc1ccc(C(=O)c2ccccc2)c(O)c1 [Example 10, 4-octyloxy-2-hydroxydibenzophenone]
extraction rate for lithium ions [1, 6]: 9.8%
separation factor of Li/Na [1, 6]: 2.3
extraction rate for sodium ions [3, 6]: 4.5%

cK, remaining aqueous phase R1 [2, 8]: 42.65 g/L
Compound: CCCCCCCCCCOc1ccc(C(=O)c2ccccc2)c(O)c1 [Example 11, 4-decyloxy-2-hydroxydibenzophenone]
extraction rate for lithium ions [1, 8]: 3.1%
separation factor of Li/Na [1, 8]: 3.5
extraction rate for sodium ions [3, 8]: 0.9%

Compound: CCCCCCCCOc1cc(O)c(C(=O)c2ccccc2)cc1[N+](=O)[O-] [Example 13, 4-octyloxy-5-nitro-2-hydroxydibenzophenone]
extraction rate for lithium ions [1, 8]: 64.7%
separation factor of Li/K [1, 8]: 39.9
separation factor of Li/Na [1, 8]: 33.2
extraction rate for potassium ions [2, 8]: 4.4%
extraction rate for sodium ions [3, 8]: 5.2%

cK, remaining aqueous phase R1 [2, 7]: 1.80 g/L
Compound: CCCCCCCCCCCCOc1cc(O)c(C(=O)c2ccccc2)cc1Br [Example 15, 4-dodecyloxy-5-bromo-2-hydroxydibenzophenone]
extraction rate for lithium ions [1, 7]: 64.5%
separation factor of Li/K [1, 7]: 5.8
separation factor of Li/Na [1, 7]: 24.4
extraction rate for potassium ions [2, 7]: 23.7%
extraction rate for sodium ions [3, 7]: 6.9%

cK, remaining aqueous phase R1 [2, 9]: 6.89 g/L
Compound: CCCCCCCCOc1c([N+](=O)[O-])cc(C(=O)c2ccccc2)c(O)c1[N+](=O)[O-] [Example 16, 4-octyloxy-2,5-dinitro-2-hydroxydibenzophenone]
extraction rate for lithium ions [1, 9]: 88.5%
separation factor of Li/K [1, 9]: 73.7
separation factor of Li/Na [1, 9]: 52.9
extraction rate for potassium ions [2, 9]: 9.5%
extraction rate for sodium ions [3, 9]: 12.7%

Compound: COc1ccc(C(=O)c2ccc(OC)cc2O)c(O)c1 [Example 28, 2,2'-dihydroxy-4,4'-dimethoxydibenzophenone]
extraction rate for lithium ions [1, 5]: 83.6%
separation factor of Li/Na [1, 5]: 146.7
extraction rate for sodium ions [3, 5]: 3.4%

Compound: COc1cccc(O)c1C(C)=O [Example 31, 2-hydroxy-6-methoxyacetophenone]
extraction rate for lithium ions [1, 4]: 53.42%
separation factor of Li/Na [1, 4]: 10.5
extraction rate for potassium ions [2, 4]: 3.2%
extraction rate for sodium ions [3, 4]: 9.86%

cK, remaining aqueous phase R1 [2, 4]: 5.01 g/L
Compound: CC(=O)c1cc(OCc2ccccc2)ccc1O [Example 32, 2-hydroxy-5-benzyloxyacetophenone]
extraction rate for lithium ions [1, 4]: 46.6%
separation factor of Li/Na [1, 4]: 10.3
extraction rate for potassium ions [2, 4]: 6.7%
extraction rate for sodium ions [3, 4]: 7.8%

cK, remaining aqueous phase R1 [2, 4]: 4.95 g/L
Compound: COc1ccc(C(C)=O)c(O)c1OC [Example 33, 2-hydroxy-3,4-dimethoxyacetophenone]
extraction rate for lithium ions [1, 4]: 50.06%
separation factor of Li/Na [1, 4]: 7.4
extraction rate for potassium ions [2, 4]: 7.8%
extraction rate for sodium ions [3, 4]: 11.94%

Compound: CC(=O)c1cccc([N+](=O)[O-])c1O [Example 34, 2-hydroxy-3-nitrocetophenone]
extraction rate for lithium ions [1, 4]: 93.28%
separation factor of Li/Na [1, 4]: 156
extraction rate for potassium ions [2, 4]: 4.5%
extraction rate for sodium ions [3, 4]: 8.17%

Compound: CC(=O)c1ccc([N+](=O)[O-])cc1O [Example 35, 2-hydroxy-4-nitrocetophenone]
extraction rate for lithium ions [1, 4]: 91.72%
separation factor of Li/Na [1, 4]: 145
extraction rate for potassium ions [2, 4]: 3.0%
extraction rate for sodium ions [3, 4]: 7.09%

Compound: CC(=O)c1c(O)cccc1[N+](=O)[O-] [Example 36, 2-hydroxy-6-nitrocetophenone]
extraction rate for lithium ions [1, 4]: 81.1%
separation factor of Li/Na [1, 4]: 48
extraction rate for potassium ions [2, 4]: 9.3%
extraction rate for sodium ions [3, 4]: 8.2%

cK, remaining aqueous phase R1 [2, 4]: 4.93 g/L
Compound: CC(=O)c1cc(Cl)cc([N+](=O)[O-])c1O [Example 37, 5-chloro-2-hydroxy-3-nitrocetophenone]
extraction rate for lithium ions [1, 4]: 92.1%
separation factor of Li/Na [1, 4]: 120
extraction rate for potassium ions [2, 4]: 9.2%
extraction rate for sodium ions [3, 4]: 8.7%

cK, remaining aqueous phase R1 [2, 4]: 4.99 g/L
Compound: O=C(c1ccccc1)c1cc(Cl)ccc1O [Example 38, 2-hydroxy-5-chlorodibenzophenone]
extraction rate for lithium ions [1, 4]: 56.06%
separation factor of Li/Na [1, 4]: 13.5
extraction rate for potassium ions [2, 4]: 7.1%
extraction rate for sodium ions [3, 4]: 8.7%
